Several values for one entry are separate records, joined by “and”; a condition that tells them apart may be missing. Identical values can stand only once. Like-named read-outs stand apart in the source and are kept apart here.
What was measured:
Format in all cases: physicochemical
[1] = MALVERN MASTERSIZER 2000 particle size (d10, d50, d90)
Description: (§1) All particle size (PS) analyses were conducted using a ROTAP Particle Size Analyzer and a MALVERN MASTERSIZER 2000, except as otherwise indicated. All particle size data were measured in microns and analyzed via the MALVERN MASTERSIZER 2000.

Tapped density = test: Tapped density
Description: (§2) Tapped density of the granulates of the present invention is typically at least about 0.6 g/mL, at least about 0.75 g/mL, at least about 0.80 g/mL, at least about 0.85 g/mL, or at least about 0.90 g/mL. Overall, the tapped density of the granulates of the present invention generally ranges from about 0.6 g/mL to about 1.0 g/mL, from about 0.7 g/mL to about 0.95 g/mL, or from about 0.8 g/mL to about 0.9 g/mL (e.g., about 0.85 g/mL). Bulk and tapped density as reported herein are determined by USP <616>, but it should be understood that other methods known in the art may be also be utilized to determine the tapped densities of compositions of the present invention.
(§3) Tare a 250 mL graduated glass cylinder. Fill with 100 grams of sample. Reweigh to determine weight. Record Initial Volume. The bulk density is the weight in grams divided by the volume (mL). Tap 1000 times by the automated tapping device. Read final volume. The tapped density is the weight in grams divided by the tapped volume (mL).

Bulk density = test: Bulk density
Description: as §2, §3

[2] = ROTAP sieve particle size distribution (% retained)
Description: as §1
Particle Size: During the granulation process, an approximately 300 g sample is taken from material of the finished product drum starting with the first drum and every sixth drum thereafter, including the last drum (i.e. drum #1, 7, 13, 19 etc.). […] Each fraction was weighed and percent retained was calculated.

[3] = HANSON FLODEX powder flowability (viscosity)
Source text: Samples were also subjected to flowability testing using a HANSON FLODEX Powder Flowability tester. The basis for the method is the powders ability to fall freely through a hole in a plate. The diameter of the smallest hole through which the powder passes is considered the flowability index. The flowability index (radius of hole size in cm) along with the bulk density of the material tested are then used to determine the viscosity (internal friction coefficient) of the powder. Lower powder viscosity indicates better flowability.
Samples of the finished lactitol granulations produced during execution of the commercial optimization protocol were also evaluated for flow using the HANSON Intrinsic Flowability Test. During the test, the smallest hole (in millimeters) that the product will flow through is determined in the FLODEX apparatus. Using this information and the bulk density of each powder (as determined in a 250 mL graduated cylinder) the coefficient of friction or viscosity (K) was calculated. The viscosity K (in poises) is equal to 490 (½ the acceleration of gravity) times the radius of the hole in centimeters times the bulk density of the sample. The result K is then multiplied by 100 to express the viscosity in centipoises.

[4] = Moisture content by Karl Fischer (KF)
Description: As noted, lactitol exists in the monohydrate, dihydrate, trihydrate, and hexahydrate forms. Lactitol monohydrate is the preferred form of lactitol for use. Lactitol monohydrate is defined by the EU-NP and USP-NF as having moisture content of between 4.5 wt % and 5.5 wt %. As used herein, the term “moisture content” refers to the total moisture content of a composition, including both free and bound water. Moisture contents reported here are determined by the Karl-Fischer (KF) method, but may also be determined by other suitable methods known in the art.
During the weighing of the ingredients for the binder solution and during the set up for granulation, an approximately 100 g sample representing each raw material is taken and placed into an appropriately labeled container. An approximately 0.3 gram sample is dispersed in methanol and test using a Karl Fischer moisture analyzer with HYDRANAL Composite 5 titrant using a 60 sec extraction time. Percent moisture was reported.
For each Qualification lot, at the beginning and middle of each shift samples were pulled using a sample thief from three locations within the tub after granulation but before drying. These samples were tested for moisture as described above.
Moisture content was also tested using the same procedure after the second drying step.

[5] = jet mill Grinding Pressure 25 PSI, Feed Injection Pressure 20 PSI
[6] = jet mill Grinding Pressure 25 PSI, Feed Injection Pressure 40 PSI
[7] = jet mill Grinding Pressure 25 PSI, Feed Injection Pressure 60 PSI
[8] = jet mill Grinding Pressure 30 PSI, Feed Injection Pressure 20 PSI
[9] = jet mill Grinding Pressure 30 PSI, Feed Injection Pressure 40 PSI
[10] = jet mill Grinding Pressure 30 PSI, Feed Injection Pressure 60 PSI
[11] = jet mill Grinding Pressure 35 PSI, Feed Injection Pressure 20 PSI
[12] = jet mill Grinding Pressure 35 PSI, Feed Injection Pressure 40 PSI
[13] = jet mill Grinding Pressure 35 PSI, Feed Injection Pressure 60 PSI

OC[C@@H](O)[C@@H](O[C@@H]1O[C@H](CO)[C@H](O)[C@H](O)[C@H]1O)[C@H](O)[C@@H](O)CO [Drum No. 20]
PS d10 ([1]; listed as 20): 4.0 μ
PS d50 ([1]; listed as 20): 33.8 μ
PS d90 ([1]; listed as 20): 209.8 μ
Particle Size Span ([1]; listed as 20): 6.1

OC[C@@H](O)[C@@H](O[C@@H]1O[C@H](CO)[C@H](O)[C@H](O)[C@H]1O)[C@H](O)[C@@H](O)CO [Drum No. 21]
PS d10 ([1]; listed as 21): 5.0 μ
PS d50 ([1]; listed as 21): 50.8 μ
PS d90 ([1]; listed as 21): 290.2 μ
Particle Size Span ([1]; listed as 21): 5.6

OC[C@@H](O)[C@@H](O[C@@H]1O[C@H](CO)[C@H](O)[C@H](O)[C@H]1O)[C@H](O)[C@@H](O)CO [Drum No. 22]
PS d10 ([1]; listed as 22): 4.4 μ
PS d50 ([1]; listed as 22): 36.7 μ
PS d90 ([1]; listed as 22): 235.3 μ
Particle Size Span ([1]; listed as 22): 6.3

OC[C@@H](O)[C@@H](O[C@@H]1O[C@H](CO)[C@H](O)[C@H](O)[C@H]1O)[C@H](O)[C@@H](O)CO [Drum No. 24]
PS d10 ([1]; listed as 24): 5.4 μ
PS d50 ([1]; listed as 24): 53.1 μ
PS d90 ([1]; listed as 24): 289.0 μ
Particle Size Span ([1]; listed as 24): 5.3

OC[C@@H](O)[C@@H](O[C@@H]1O[C@H](CO)[C@H](O)[C@H](O)[C@H]1O)[C@H](O)[C@@H](O)CO [Drum No. 25]
PS d10 ([1]; listed as 25): 4.2 μ
PS d50 ([1]; listed as 25): 35.5 μ
PS d90 ([1]; listed as 25): 261.8 μ
Particle Size Span ([1]; listed as 25): 7.3

OC[C@@H](O)[C@@H](O[C@@H]1O[C@H](CO)[C@H](O)[C@H](O)[C@H]1O)[C@H](O)[C@@H](O)CO [Drum No. 26]
PS d10 ([1]; listed as 26): 4.4 μ
PS d50 ([1]; listed as 26): 40.8 μ
PS d90 ([1]; listed as 26): 298.4 μ
Particle Size Span ([1]; listed as 26): 7.2

OC[C@@H](O)[C@@H](O[C@@H]1O[C@H](CO)[C@H](O)[C@H](O)[C@H]1O)[C@H](O)[C@@H](O)CO [Drum No. 27]
PS d10 ([1]; listed as 27): 4.2 μ
PS d50 ([1]; listed as 27): 40.2 μ
PS d90 ([1]; listed as 27): 272.3 μ
Particle Size Span ([1]; listed as 27): '6.7

OC[C@@H](O)[C@@H](O[C@@H]1O[C@H](CO)[C@H](O)[C@H](O)[C@H]1O)[C@H](O)[C@@H](O)CO [Drum No. 28]
PS d10 ([1]; listed as 28): 4.6 μ
PS d50 ([1]; listed as 28): 40.4 μ
PS d90 ([1]; listed as 28): 263.7 μ
Particle Size Span ([1]; listed as 28): 6.4

OC[C@@H](O)[C@@H](O[C@@H]1O[C@H](CO)[C@H](O)[C@H](O)[C@H]1O)[C@H](O)[C@@H](O)CO [Drum No. 29]
PS d10 ([1]; listed as 29): 5.7 μ
PS d50 ([1]; listed as 29): 84.8 μ
PS d90 ([1]; listed as 29): 401.6 μ
Particle Size Span ([1]; listed as 29): 4.7

OC[C@@H](O)[C@@H](O[C@@H]1O[C@H](CO)[C@H](O)[C@H](O)[C@H]1O)[C@H](O)[C@@H](O)CO [Drum No. 33]
PS d10 ([1]; listed as 33): 4.1 μ
PS d50 ([1]; listed as 33): 36.6 μ
PS d90 ([1]; listed as 33): 267.6 μ
Particle Size Span ([1]; listed as 33): 7.2

OC[C@@H](O)[C@@H](O[C@@H]1O[C@H](CO)[C@H](O)[C@H](O)[C@H]1O)[C@H](O)[C@@H](O)CO [Drum No. 37]
PS d10 ([1]; listed as 37): 4.4 μ
PS d50 ([1]; listed as 37): 43.9 μ
PS d90 ([1]; listed as 37): 337.2 μ
Particle Size Span ([1]; listed as 37): 7.6

OC[C@@H](O)[C@@H](O[C@@H]1O[C@H](CO)[C@H](O)[C@H](O)[C@H]1O)[C@H](O)[C@@H](O)CO [Drum No. Last]
PS d10 ([1]; listed as Last): 4.2 μ
PS d50 ([1]; listed as Last): 39.1 μ
PS d90 ([1]; listed as Last): 341.6 μ
Particle Size Span ([1]; listed as Last): 8.6

OC[C@@H](O)[C@@H](O[C@@H]1O[C@H](CO)[C@H](O)[C@H](O)[C@H]1O)[C@H](O)[C@@H](O)CO [Jet Milled B]
Tapped Density (Tapped density): 0.933 g/mL
Bulk Density (Bulk density): 0.670 g/mL
Particle Size Distribution (% Retained) 12 ([2]; 12 mesh screen): 0.0%
Particle Size Distribution (% Retained) 20 ([2]; 20 mesh screen): 0.0%
Particle Size Distribution (% Retained) 40 ([2]; 40 mesh screen): 1.9%
Particle Size Distribution (% Retained) 60 ([2]; 60 mesh screen): 14.4%
Particle Size Distribution (% Retained) 80 ([2]; 80 mesh screen): 17.2%
Particle Size Distribution (% Retained) 100 ([2]; 100 mesh screen): 10.7%
Particle Size Distribution (% Retained) 200 ([2]; 200 mesh screen): 36.3%
Particle Size Distribution (% Retained) Pan ([2]; receiving pan): 19.5%
PS d10 [1]: 5.3 μ
PS d50 [1]: 60.0 μ
PS d90 [1]: 316.2 μ
d50 (mean particle size by volume distribution) [1]: 60 microns

OC[C@@H](O)[C@@H](O[C@@H]1O[C@H](CO)[C@H](O)[C@H](O)[C@H]1O)[C@H](O)[C@@H](O)CO [Proof of Concept]
PS d10 [1]: 5.3 μ
PS d50 [1]: 60.0 μ
PS d90 [1]: 316.2 μ
Particle Size Span [1]: 5.2

OC[C@@H](O)[C@@H](O[C@@H]1O[C@H](CO)[C@H](O)[C@H](O)[C@H]1O)[C@H](O)[C@@H](O)CO [Sample 1b]
PS d10 [1]: 5.6 μ
PS d50 [1]: 56.7 μ
PS d90 [1]: 420.9 μ
Particle Size Span [1]: 7.3

OC[C@@H](O)[C@@H](O[C@@H]1O[C@H](CO)[C@H](O)[C@H](O)[C@H]1O)[C@H](O)[C@@H](O)CO [Sample 2b]
PS d10 [1]: 5.5 μ
PS d50 [1]: 56.5 μ
PS d90 [1]: 401.2 μ
Particle Size Span [1]: 7.0

OC[C@@H](O)[C@@H](O[C@@H]1O[C@H](CO)[C@H](O)[C@H](O)[C@H]1O)[C@H](O)[C@@H](O)CO [Sample 3b]
PS d10 [1]: 7.6 μ
PS d50 [1]: 113.1 μ
PS d90 [1]: 656.4 μ
Particle Size Span [1]: 5.7

OC[C@@H](O)[C@@H](O[C@@H]1O[C@H](CO)[C@H](O)[C@H](O)[C@H]1O)[C@H](O)[C@@H](O)CO [jet milled lactitol]
viscosity (flowability) [3]: 46,905 cps
viscosity of jet milled lactitol, times higher than raw lactitol [3]: approximately 4.8 times
Particle Size Span [1, 5]: 4.2
Particle Size d10 [1, 5]: 10.8 μ
Particle Size d50 [1, 5]: 150.7 μ
Particle Size d90 [1, 5]: 646.1 μ
Particle Size Span [1, 6]: 4.6
Particle Size d10 [1, 6]: 8.5 μ
Particle Size d50 [1, 6]: 122.9 μ
Particle Size d90 [1, 6]: 585.1 μ
Particle Size Span [1, 7]: 7.2
Particle Size d10 [1, 7]: 5.5 μ
Particle Size d50 [1, 7]: 84.3 μ
Particle Size d90 [1, 7]: 619.5 μ
Particle Size Span [1, 8]: 12.7
Particle Size d10 [1, 8]: 4.5 μ
Particle Size d50 [1, 8]: 47.8 μ
Particle Size d90 [1, 8]: 615.2 μ
Particle Size Span [1, 9]: 13.7
Particle Size d10 [1, 9]: 4.5 μ
Particle Size d50 [1, 9]: 46.3 μ
Particle Size d90 [1, 9]: 640.1 μ
Particle Size Span [1, 10]: 11.1
Particle Size d10 [1, 10]: 4.5 μ
Particle Size d50 [1, 10]: 45.6 μ
Particle Size d90 [1, 10]: 513.0 μ
Particle Size Span [1, 11]: 17.5
Particle Size d10 [1, 11]: 4.1 μ
Particle Size d50 [1, 11]: 36.0 μ
Particle Size d90 [1, 11]: 635.0 μ
Particle Size Span [1, 12]: 6.5
Particle Size d10 [1, 12]: 5.8 μ
Particle Size d50 [1, 12]: 83.4 μ
Particle Size d90 [1, 12]: 548.6 μ
Particle Size Span [1, 13]: 5.4
Particle Size d10 [1, 13]: 7.6 μ
Particle Size d50 [1, 13]: 110.9 μ
Particle Size d90 [1, 13]: 611.9 μ

OC[C@@H](O)[C@@H](O[C@@H]1O[C@H](CO)[C@H](O)[C@H](O)[C@H]1O)[C@H](O)[C@@H](O)CO [milled lactitol]
KF moisture [4]: 5.05% and 4.99%
